Results on five molecules are retold here after US20240246959A1, “BENZIMIDAZOLE DERIVATIVE AND PREPARATION METHOD THEREFOR AND MEDICAL USE THEREOF” (Shenzhen Salubris Pharmaceuticals Co., Ltd., priority 2020, published 2024).

pEC50, pIC50: −log10 of the molar value. Bounds are passed on as bounds.

One data set deals with T1, human GLP-1 R (Homo sapiens, UniProt P43220).
T1 construct: expressed in transfected cells
Nature of the data set: cAMP signal activation in human GLP1R cells (hGLP1R-U2OS, HTRF). The format is cell-based. Here is the method: A cell line stably expressing human GLP1 R (hGLP1R-U2OS) was used in this experiment. The cells were cultured in a growth medium (complete medium, DMEM+10% FBS+500 μg/mL G418 (Promega)) in an incubator at 37° C. and has 5% CO2 saturated humidity.
hGLP1R-U2OS was inoculated into 384-well plate with 1.0×10^4 cells/well (5 μL) (cell working solution: DMEM+0.1% BSA+1 mM IBMX (available from Bide Pharmatech Ltd.)), and was placed in an incubator at 37° C. and held for 30 min. The compounds to be tested were diluted stage-by-stage with Stimulation Buffer 1 (1×) in the kit, and the diluted compounds were added to the culture plate with 5 μL/well. They were incubated in an incubator at 37° C. for 30 min. Then, 5 μL/well of cAMP-d2 prepared with Lysis & Detection buffer and 5 μL/well of Anti CAMP-Cryptate working solution were added successively, and they were incubated at room temperature for 60 min before detection.
The ratio of signal emitted by donor to […] in each well was calculated as follows: HTRF rate=signal at 665 nm/signal at 620 nm×104, and then the HTRF rate was converted into a reaction rate (%). The concentration-response curve of each Example compound was created by a 4-parameter equation as Y=Bottom+(Top−Bottom)/(1+10^((Log IC50−X)*HillSlope)), and the half maximal (50%) effective concentration (EC50) was calculated.

Data set [1] in a line: Pharmacokinetic study on rat. It is filed as in vivo, SD rats. As to conditions: for F: 5 mg/kg p.o vs 1 mg/kg i.v; for AUC(0-t) / Cmax / clearance / half-life: male, Sprague-Dawley (SD), plasma. The source says:
• SD rats: male, 180-250 g, purchased from Beijing Vital River Laboratory Animal Technology Co., Ltd. • Reagents: DMSO (dimethyl sulfoxide), PEG-400 (polyethylene glycol 400), physiological saline, heparin, acetonitrile, formic acid, and propranolol (internal standard), all of which are commercially available. • Instruments: Thermo Fisher Scientific LC-MS (U300 UPLC, TSQ QUANTUMN ULTRA triple quadrupole mass spectrometer).
A compound was weighed and dissolved in a DMSO-PEG-400-physiological saline (5:60:35, v/v/v) system. After the rats were administered with the compound intravenously or by gavage, 200 μL of venous blood samples were collected at 15 min, 30 min, 1 h, 2 h, 5 h, 7 h, and 24 h (for i.v. group an additional collection was performed at 5 min) in heparinized EP tubes respectively, which were centrifuged at 12,000 rpm for 2 min, and the plasma was frozen at −80° C. for further testing. A certain amount of the test substance was precisely weighed and dissolved in DMSO to obtain a stock solution with a concentration of 2 mg/mL. An appropriate amount of the stock solution of the compound was accurately pipetted and diluted with acetonitrile to prepare a standard series solution. 20 μL of each of the above standard series solution was accurately pipetted, added with 180 μL of blank plasma, and vortexed mixed to prepare plasma samples corresponding to plasma concentrations of 0.3, 1, 3, 10, 30, 100, 300, 1000, 3000 ng/mL. Two-sample analysis was performed for each concentration to establish a standard curve. 30 μL of plasma (for samples that are obtained at 5 min, 15 min, 30 min, and 1 h after intravenous administration, the plasma were diluted 10 times) was taken, added with 200 μL of a solution of internal standard propranolol in acetonitrile (50 ng/ml), and vortexed mixed. The mixture was then added with 100 μL of pure water, and vortexed and mixed again. It was centrifuged at 4000 rpm for 5 min, and the supernatant was collected for LC-MS analysis. LC-MS detection conditions were as follows. • Chromatographic column: Thermo Scientific HYPERSIL GOLD C-18 UPLC column, 100*2.1 mm, 1.7 μm. • Mobile phase: water (with 0.1% formic acid)-acetonitrile; gradient elution was performed according to the table below.
After blood drug concentrations was detected by LC-MS, WinNonlin 6.1 software was used to calculate pharmacokinetic parameters based on non-compartmental model.

The target of data set [2] is T2, hERG potassium ion channel (Homo sapiens, UniProt Q12809).
T2 construct: expressed in transfected cells
The data set can be described thus: Effect on hERG potassium ion channel (CHO-hERG, manual patch clamp). It is filed as cell-based. The procedure: A cell line CHO-hERG from ovary of Chinese hamster that stably expresses hERG potassium channel was used in this experiment. The cells were cultured in F12 complete medium containing 10% FBS, 1% antibiotics (G418), and 89 μg/mL hygromycin. The recovery medium was a F12 medium containing 10% FBS. Culture was performed at 37° C. and under 5% CO2.
The inhibitory activity of the compounds of the present invention in series gradient concentrations on the potassium channel in CHO-hERG was determined by manual patch clamp system.

T1 sequence (P43220 24-463): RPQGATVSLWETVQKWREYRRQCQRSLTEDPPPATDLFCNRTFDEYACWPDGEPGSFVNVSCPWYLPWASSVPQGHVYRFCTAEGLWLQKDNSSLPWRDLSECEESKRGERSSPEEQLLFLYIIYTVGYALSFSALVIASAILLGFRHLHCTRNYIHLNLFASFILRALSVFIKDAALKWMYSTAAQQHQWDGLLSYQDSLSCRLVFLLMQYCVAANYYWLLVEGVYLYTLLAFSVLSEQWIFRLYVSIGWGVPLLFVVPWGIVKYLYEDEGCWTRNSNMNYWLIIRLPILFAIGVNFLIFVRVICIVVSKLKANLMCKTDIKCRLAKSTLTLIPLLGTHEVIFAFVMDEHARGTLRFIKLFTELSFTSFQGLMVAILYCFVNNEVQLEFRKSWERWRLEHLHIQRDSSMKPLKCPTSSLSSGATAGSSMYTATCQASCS
T2 sequence (Q12809 whole entry): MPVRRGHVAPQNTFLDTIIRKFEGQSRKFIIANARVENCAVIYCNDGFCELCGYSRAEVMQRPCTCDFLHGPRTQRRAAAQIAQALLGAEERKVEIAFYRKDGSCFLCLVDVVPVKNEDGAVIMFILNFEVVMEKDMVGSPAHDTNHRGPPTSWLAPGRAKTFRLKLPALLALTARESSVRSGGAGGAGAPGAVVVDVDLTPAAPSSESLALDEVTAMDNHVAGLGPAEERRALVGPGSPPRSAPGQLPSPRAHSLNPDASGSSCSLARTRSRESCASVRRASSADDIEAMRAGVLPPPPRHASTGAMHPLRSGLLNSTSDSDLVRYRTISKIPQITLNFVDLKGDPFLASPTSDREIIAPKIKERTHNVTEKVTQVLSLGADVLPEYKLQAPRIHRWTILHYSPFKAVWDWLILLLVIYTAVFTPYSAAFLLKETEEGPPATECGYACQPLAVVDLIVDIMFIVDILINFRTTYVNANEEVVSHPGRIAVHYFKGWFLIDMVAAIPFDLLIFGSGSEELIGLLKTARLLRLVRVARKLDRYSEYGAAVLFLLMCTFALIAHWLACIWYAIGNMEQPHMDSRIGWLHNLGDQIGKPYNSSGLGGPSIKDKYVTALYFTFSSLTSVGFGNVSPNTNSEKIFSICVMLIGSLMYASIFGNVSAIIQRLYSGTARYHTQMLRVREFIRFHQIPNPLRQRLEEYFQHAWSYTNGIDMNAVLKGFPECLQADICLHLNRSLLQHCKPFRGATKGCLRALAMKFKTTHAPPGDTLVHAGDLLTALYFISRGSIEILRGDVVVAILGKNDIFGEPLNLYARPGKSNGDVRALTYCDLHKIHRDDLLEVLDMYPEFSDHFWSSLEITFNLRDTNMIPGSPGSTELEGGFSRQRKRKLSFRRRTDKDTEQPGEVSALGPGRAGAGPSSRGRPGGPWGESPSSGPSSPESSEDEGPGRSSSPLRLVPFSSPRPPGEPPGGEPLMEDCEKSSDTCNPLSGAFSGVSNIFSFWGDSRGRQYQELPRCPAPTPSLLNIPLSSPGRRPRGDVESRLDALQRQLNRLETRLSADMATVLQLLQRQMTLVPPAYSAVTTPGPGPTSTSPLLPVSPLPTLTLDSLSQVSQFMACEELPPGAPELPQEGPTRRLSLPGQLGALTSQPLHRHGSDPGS

Turning to `C[C@@H](c1nc2ccc(C(=O)O)nc2n1C[C@@H]1CCO1)N1CCC(c2cccc(OCc3ccc(Cl)cc3F)n2)CC1` [Example 12, 2-((S)-1-(4-(6-((4-chloro-2-fluorobenzyl)oxy)pyridin-2-yl)piperidin-1-yl)ethyl)-3-(((S)-oxetan-2-yl)methyl)-3H-imidazolo[4,5-b]pyridin-5-carboxylic acid], the pEC50 on human GLP-1 R was 8.41. In data set [1], the F is on record as 168.2%. In data set [1] (iv, 1 mg/kg, i.v), this molecule gave an AUC(0-t) of 1700 ng·h/mL, a Cmax of 2250 ng/mL, a clearance of 9.79 mL/min/kg and a half-life of 0.87 h. In data set [1] (po, 5 mg/kg, p.o), this molecule gave an AUC(0-t) of 14300 ng·h/mL, a Cmax of 3780 ng/mL and a half-life of 2.69 h.

As for `C[C@@H](c1nc2ccc(C(=O)O)cc2n1C[C@@H]1CCO1)N1CCC(c2cccc(OCc3ccc(Cl)cc3F)n2)CC1` [Example 1A, 2-((S)-1-(4-(6-((4-chloro-2-fluorobenzyl)oxy)pyridin-2-yl)piperidin-1-yl)ethyl)-1-(((S)-oxetan-2-yl)methyl)-1H-benzo[d]imidazol-6-carboxylic acid], the pEC50 at human GLP-1 R was 8.77. Further, in data set [1], the F is given as 49.0%. Also, in data set [1] (iv, 1 mg/kg, i.v), the AUC(0-t) amounted to 2430 ng·h/mL, the Cmax amounted to 2310 ng/mL, the clearance was found to be 6.88 mL/min/kg and the half-life was 2.89 h. In data set [1] (po, 5 mg/kg, p.o), this molecule showed an AUC(0-t) of 5950 ng·h/mL, a Cmax of 747 ng/mL and a half-life of 3.4 h.

`C[C@@H](c1nc2ccc(C(=O)O)cc2n1C[C@@H]1CCO1)N1CCN(c2cccc(OCc3ccc(C#N)cc3F)n2)CC1` [Example 20A, 2-((S)-1-(4-(6-((4-cyano-2-fluorobenzyl)oxy)pyridin-2-yl)piperazin-1-yl)ethyl)-1-(((S)-oxetan-2-yl)methyl)-1H-benzo[d]imidazol-6-carboxylic acid] showed a pEC50 on human GLP-1 R of 8.33. Besides, in data set [2], the pIC50 is < 4.52. The molecule further displayed a F in data set [1] of 46.4%. Further, in data set [1] (iv, 1 mg/kg, i.v), the AUC(0-t) was 539 ng·h/mL, the Cmax was 1290 ng/mL, the clearance was 30.7 mL/min/kg and the half-life was 0.31 h. Besides, in data set [1] (po, 5 mg/kg, p.o), the AUC(0-t) turned out to be 1250 ng·h/mL, the Cmax amounted to 348 ng/mL and the half-life is 1.17 h.

With `C[C@@H](c1nc2ccc(C(=O)O)nc2n1C[C@@H]1CCO1)N1CCN(c2cccc(OCc3ccc(Cl)cc3F)n2)CC1` [Example 52A, 2-((S)-1-(4-(6-((4-chloro-2-fluorobenzyl)oxy)pyridin-2-yl)piperazin-1-yl)ethyl)-3-(((S)-oxetan-2-yl)methyl)-3H-imidazo[4,5-b]pyridin-5-carboxylic acid], at human GLP-1 R, the pEC50 was 8.70. The same molecule had a F in data set [1] of 76.6%. In data set [1] (iv, 1 mg/kg, i.v), this molecule gave an AUC(0-t) of 1130 ng·h/mL, a Cmax of 2050 ng/mL, a clearance of 14.7 mL/min/kg and a half-life of 0.95 h. In data set [1] (po, 5 mg/kg, p.o), this molecule showed an area under the curve AUC(0-t) of 4330 ng·h/mL, a Cmax of 1160 ng/mL and a half-life of 2.77 h.

In turn, `C[C@@H](c1nc2ccc(C(=O)O)nc2n1C[C@@H]1CCO1)N1CCN(c2cccc(OCc3ccc(C#N)cc3F)n2)CC1` [Example 51A, 2-((S)-1-(4-(6-((4-cyano-2-fluorobenzyl)oxy)pyridin-2-yl)piperazin-1-yl)ethyl)-3-(((S)-oxetan-2-yl)methyl)-3H-imidazo[4,5-b]pyridin-5-carboxylic acid] showed a pEC50 at human GLP-1 R of 8.64. In data set [1], the F turned out to be 34.3%. In data set [1] (iv, 1 mg/kg, i.v), this molecule showed an AUC(0-t) of 613 ng·h/mL, a Cmax of 1990 ng/mL, a clearance of 27.2 mL/min/kg and a half-life of 0.71 h. In addition, in data set [1] (po, 5 mg/kg, p.o), the AUC(0-t) was 1050 ng·h/mL, the Cmax was 323 ng/mL and the half-life is 1.06 h.
